We go through 1 compound from patent US11051515B2, “3-acyl-benzamides and their use as herbicides” (Bayer Aktiengesellschaft, priority 2017, dated 2021).

The subject of experiment [1] is ABUTH. As to the kind of experiment: Post-emergence action against ABUTH. Format: in vivo, Abutilon theophrasti. Particulars: post-emergence, dosage 80 g/ha, visual assessment about 3 weeks after treatment vs untreated controls. The gist of the method:
(§1)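 Weeds grown in sandy loam in greenhouse, treated at one-leaf stage (2–3 weeks after sowing) with WP or EC formulations sprayed as aqueous suspension/emulsion at 600 to […] water with 0.2% wetting agent. Visual rating after about 3 weeks versus untreated controls, as % herbicidal action (100% = plants dead, 0% = like control).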

The subject of experiment [2] is AMARE. Kind of experiment: Pre-emergence action against AMARE. It is filed as in vivo, Amaranthus retroflexus. Particulars: pre-emergence, dosage 320 g/ha, scored visually after 3 weeks vs untreated controls. The method in brief:
(§2)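 Seeds sown in sandy loam in wood-fiber pots and covered with soil. Greenhouse growth; visual damage scored after 3 weeks versus untreated controls (100% = dead, 0% = like control).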

The subject of experiment [3] is ECHCG. Kind of experiment: Pre-emergence action against ECHCG. Particulars: pre-emergence, dosage 320 g/ha, scored visually after 3 weeks vs untreated controls. It is filed as in vivo, Echinochloa crus-galli. The gist of the method:
as §2

Experiment [4] deals with AMARE. Kind of experiment: Post-emergence action against AMARE. Format: in vivo, Amaranthus retroflexus. Particulars: post-emergence, dosage 80 g/ha, visual assessment about 3 weeks after treatment vs untreated controls. The method in brief:
as §1

Experiment [5] relates to LOLMU. As to the kind of experiment: Pre-emergence action against LOLMU. Format: in vivo, Lolium multiflorum. Particulars: dosage 320 g/ha, scored visually after 3 weeks vs untreated controls. The gist of the method:
as §2

In experiment [6] the test system is SETVI. As to the kind of experiment: Post-emergence action against SETVI. It is filed as in vivo, Setaria viridis. Particulars: post-emergence, dosage 80 g/ha, visual assessment about 3 weeks after treatment vs untreated controls. The gist of the method: as §1
Experiment [7] has as its system LOLMU. As to the kind of experiment: Post-emergence action against LOLMU. Particulars: dosage 80 g/ha, visual assessment about 3 weeks after treatment vs untreated controls. Format: in vivo, Lolium multiflorum. How it is done: Seeds of monocotyledonous and dicotyledonous weed and crop plants are laid out in sandy loam soil in wood-fiber pots, covered with soil and cultivated in a greenhouse under good growth conditions. 2 to 3 weeks after sowing, the test plants are treated at the one-leaf stage. The compounds of the invention, formulated in the form of wettable powders (WP) or as emulsion concentrates (EC), are then sprayed onto the green parts of the plants in the form of an aqueous suspension or emulsion at a water application rate equating to […], with addition of 0.2% wetting agent. After the test plants have been left to stand in the greenhouse under optimal growth conditions for about 3 weeks, the action of the preparations is assessed visually in comparison to untreated controls (herbicidal action in percent (%): 100% activity=the plants have died, 0% activity=like control plants). […] At the same time, inventive compounds leave Gramineae crops such as barley, wheat, rye, millet/Sorghum, corn or rice virtually undamaged when applied post-emergence, even at high active ingredient dosages. In addition, some substances are also harmless to dicotyledonous crops such as soya, cotton, oilseed rape, sugar beet or potatoes. Some of the compounds according to the invention have high selectivity and are therefore suitable for controlling unwanted vegetation in agricultural crops by the post-emergence method. The data of Tables B18 to B34 below illustrate, in an exemplary manner, the […] herbicidal action of the compounds according to the invention, the herbicidal activity being stated in percent.

For experiment [8], the system named is STEME. Kind of experiment: Pre-emergence action against STEME. Particulars: Dosage 320 g/ha, pre-emergence. Format: in vivo, Stellaria media. The gist of the method: as §2
In another experiment the test system is AVEFA. As to the kind of experiment: Pre-emergence action against AVEFA. Format: in vivo, Avena fatua. Particulars: dosage 320 g/ha, scored visually after 3 weeks vs untreated controls. The method in brief: as §2
For experiment [9], the system named is STEME. As to the kind of experiment: Post-emergence action against STEME. Particulars: post-emergence, dosage 80 g/ha. Format: in vivo, Stellaria media. The method in brief: as §1
Experiment [10] relates to CYPES. Kind of experiment: Pre-emergence action against CYPES. It is filed as in vivo, Cyperus esculentus. Particulars: pre-emergence, dosage 320 g/ha, scored visually after 3 weeks vs untreated controls. The method in brief:
as §2

In experiment [11] the test system is VERPE. Kind of experiment: Pre-emergence action against VERPE. It is filed as in vivo, Veronica persica. Particulars: Dosage 320 g/ha, pre-emergence. The method in brief: as §2
Experiment [12] relates to SETVI. As to the kind of experiment: Pre-emergence action against SETVI. Format: in vivo, Setaria viridis. Particulars: pre-emergence, dosage 320 g/ha, scored visually after 3 weeks vs untreated controls. The gist of the method: as §2
Experiment [13] concerns VERPE. As to the kind of experiment: Post-emergence action against VERPE. It is filed as in vivo, Veronica persica. Particulars: dosage 80 g/ha. The method in brief:
as §1

Experiment [14] deals with ECHCG. As to the kind of experiment: Post-emergence action against ECHCG. It is filed as in vivo, Echinochloa crus-galli. Particulars: post-emergence, dosage 80 g/ha, visual assessment about 3 weeks after treatment vs untreated controls. The method in brief:
as §1

For experiment [15], the system named is VIOTR. As to the kind of experiment: Pre-emergence action against VIOTR. It is filed as in vivo, Viola tricolor. Particulars: Dosage 320 g/ha, pre-emergence. The gist of the method:
as §2

The test system of experiment [16] is ABUTH. Kind of experiment: Pre-emergence action against ABUTH. It is filed as in vivo, Abutilon theophrasti. Particulars: pre-emergence, dosage 320 g/ha, scored visually after 3 weeks vs untreated controls. The gist of the method: as §2
Experiment [17] deals with VIOTR. Kind of experiment: Post-emergence action against VIOTR. Particulars: post-emergence, dosage 80 g/ha. It is filed as in vivo, Viola tricolor. The method in brief:
as §1

Another experiment has as its system PHBPU. Kind of experiment: Post-emergence action against PHBPU. It is filed as in vivo, Pharbitis purpurea. Particulars: post-emergence, dosage 80 g/ha. The method in brief:
as §1

Another experiment has as its system ALOMY. Kind of experiment: Pre-emergence action against ALOMY. Format: in vivo, Alopecurus myosuroides. Particulars: dosage 320 g/ha; pre-emergence; scored visually after 3 weeks vs untreated controls; 100% = plants have died, 0% = like control plants. The method in brief:
as §2

Experiment [18] deals with MATIN. As to the kind of experiment: Post-emergence action against MATIN. Format: in vivo, Matricaria inodora. Particulars: post-emergence, dosage 80 g/ha, visual assessment about 3 weeks after treatment vs untreated controls. The method in brief: as §1
The test system of experiment [19] is MATIN. Kind of experiment: Pre-emergence action against MATIN. Format: in vivo, Matricaria inodora. Particulars: Dosage 320 g/ha, pre-emergence. The gist of the method: as §2
The subject of another experiment is POLCO. As to the kind of experiment: Pre-emergence action against POLCO. Particulars: Dosage 320 g/ha, pre-emergence. Format: in vivo, Polygonum convolvulus. The method in brief:
as §2

The subject of experiment [20] is CYPES. As to the kind of experiment: Post-emergence action against CYPES. It is filed as in vivo, Cyperus esculentus. Particulars: post-emergence, dosage 80 g/ha, visual assessment about 3 weeks after treatment vs untreated controls. The method in brief:
as §1

The structures appear in SMILES notation.

Consider `CCn1nnnc1NC(=O)c1ccc(C(F)(F)F)c(C(C)=O)c1C` [2-14], for which the “Post-emergence action against ABUTH (herbicidal action in percent)” value in the experiment with ABUTH [1] is on record as 100%. In addition, the “Pre-emergence action against AMARE (herbicidal activity)” value in the experiment with AMARE [2] is recorded as 100%. Also, in the experiment with ECHCG [3], the “Pre-emergence action against ECHCG (herbicidal activity)” value was 100%. Further, the “Post-emergence action against AMARE (herbicidal action in percent)” value in the experiment with AMARE [4] was 100%. The “Pre-emergence action against LOLMU (herbicidal activity)” value in the experiment on LOLMU [5] was 80%. The “Post-emergence action against SETVI (herbicidal action in percent)” value in the experiment with SETVI [6] is recorded as 90%. In addition, in the experiment on LOLMU [7], the “Post-emergence action against LOLMU (herbicidal action in percent)” value came to 80%. The “Pre-emergence action against STEME” value with STEME [8] is listed as 100%. In addition, in the experiment on AVEFA, the “Pre-emergence action against AVEFA (herbicidal activity)” value was found to be 90%. In the experiment on STEME [9], the “Post-emergence action against STEME” value worked out at 100. In addition, in the experiment on CYPES [10], the “Pre-emergence action against CYPES (herbicidal activity)” value came to 90%. Also, in the experiment with VERPE [11], the “Pre-emergence action against VERPE” value was 100%. Also, in the experiment on SETVI [12], the “SETVI (Table B8, pre-emergence herbicidal activity)” value is reported as 100%. Moreover, the “Post-emergence action against VERPE” value with VERPE [13] is given as 80. Moreover, the “Post-emergence action against ECHCG (herbicidal action in percent)” value with ECHCG [14] came to 100%. Moreover, in the experiment with VIOTR [15], the “Pre-emergence action against VIOTR” value was determined as 100%. Also, the “Pre-emergence action against ABUTH (herbicidal activity)” value in the experiment on ABUTH [16] was found to be 100%. In addition, the “Post-emergence action against VIOTR” value with VIOTR [17] was 100. In the experiment with PHBPU, the “Post-emergence action against PHBPU” value was determined as 90. Also, the “Pre-emergence action against ALOMY (herbicidal activity in percent)” value with ALOMY is given as 80%. Moreover, the “Post-emergence action against MATIN (herbicidal action in percent)” value in the experiment with MATIN [18] worked out at 100%. In addition, the “Pre-emergence action against MATIN” value in the experiment with MATIN [19] turned out to be 100%. Also, in the experiment with POLCO, the “Pre-emergence action against POLCO” value was 80%. For the same compound, in the experiment on CYPES [20], the “Post-emergence action against CYPES (herbicidal action in percent)” value amounted to 90%.
